Test results reported in patent publication US6420137B1 (American Home Products Corporation, priority 1998, dated 2002).
Structures can show the parent of a compound that is named as a salt.

How the values were obtained:
[1] = target: T1, HNT2R (Homo sapiens, UniProt O95665); experiment: GTP sensitivity of [3H]NT binding, CHO-K1 membranes stably expressing HNT2R
T1 construct: The HindIII and XbaI digested full-length receptor cDNAs were inserted into the pRC/CMV (Invitrogen) vector; expressed in transfected cells; host or cells: GH4C1 (rat pituitary) membranes for A6 and A8; CHO-K1 membranes for A9; SK-N-MC whole cells for A11

[2] = system: HNT2RS; experiment: GTP sensitivity of [3H]NT binding, CHO-K1 membranes stably expressing HNT2RS; parameters: species or system human
Experimental: GTP sensitivity. These radioligand binding assays were performed in 96-well microtiter plates using 1×binding buffer (50 mM HEPES, pH 7.4, 10 mM MgCl2, 0.4% BSA, pH 7.4) containing protease inhibitors (5 μg/ml leupeptin, 5 μg/ml aprotinin, 100 μg/ml bacitracin, and 100 μg/ml benzamidine). […] Wells A1-6 were repeated for each membrane preparation to be tested for GTP sensitivity. Binding reactions were initiated by adding 5-100 μg of membrane protein in a 170 μl volume. Final reaction volume was 200 μl/well. The microtiter plate was placed on a rotary shaker at 200 rpm and incubated at room temperature for 2 hours. Free radioligand was separated from bound ligand by rapid filtration through a glass fiber (GF/C) filter plate pretreated with 0.3% polyethyleneimine using a Packard cell harvester. The filter plates were then washed several times with cold (4° C.) binding buffer lacking BSA. After the filter plates were dried in a 37° C. incubator for 2 hours, 25 μl Microscint scintillation fluid (Packard) was added to each well and the plate was counted in a Packard Top Count scintillation counter.

[3] = system: fasted ob/ob males; experiment: Effect of AcNT(8-13) on appetite / food consumption in mouse models of obesity; format: in vivo
Text: (§1) Obesity is associated with decreased metabolic energy expenditure and increased metabolic efficiency. Increasing metabolic energy expenditure (thermogenesis) is a desirable characteristic of anti-obesity targets.

[4] = system: neurotensin receptor subtypes NT1R, NT2R, NT3R; conditions: cited from earlier work
[5] = target: H1-histamine receptors (Homo sapiens, UniProt P35367); conditions: cited from earlier work
[6] = target: T2, HNT2RL (Homo sapiens, UniProt O95665); experiment: Competition of [3H]neurotensin binding, membranes from GH4C1 cells stably expressing HNT2RL; conditions: HNT2RL (long form), FIG. 1A
T2 construct: The HindIII and XbaI digested full-length receptor cDNAs were inserted into the pRC/CMV (Invitrogen) vector; expressed in transfected cells; host or cells: GH4C1 (rat pituitary) membranes for A6 and A8; CHO-K1 membranes for A9; SK-N-MC whole cells for A11
Experimental: (§2) A: Binding to membranes from GH4C1 cells stably expressing HNT2RL. B: Binding to membranes from GH4C1 cells stably expressing HNT2RS.
The adherent cells were removed from the plates with PBS and 2 mM EDTA, pelleted by centrifugation at 1,500×g for 10 minutes at 4° C., and resuspended in ice cold homogenization buffer (1 mM sodium bicarbonate, 1 mM EDTA, 1 mM EGTA, pH 7.2) containing 1×protease inhibitors (5 μg/ml leupeptin, 5 μug/ml aprotinin, 100 μg/ml bacitracin, and 100 μg/ml benzamidine). After 10 minutes on ice, the cells were lysed by dounce homogenizing for 20 strokes in a glass/glass homogenizer. The cell lysate was centrifuged at 1,500×g for 10 minutes at 4° C. to remove the nuclei and cell debris and the supernatant containing the cell membranes were harvested by centrifugation at 20,000×g for 30 minutes at 4° C. The membrane pellet was resuspended in 1×homogenization buffer containing 1×protease inhibitors and once again pelleted. […]
The microtiter plate was placed on a rotary shaker at 200 rpm and incubated at room temperature for 2 hours. […] After the filter plates were dried in a 37° C. incubator for 2 hours, 25 μl Microscint scintillation fluid (Packard) was added to each well and the plate was counted in a Packard Top Count scintillation counter.

[7] = system: HNT2RS; experiment: Competition of [3H]neurotensin binding, membranes from GH4C1 cells stably expressing HNT2RS; parameters: species or system human; conditions: HNT2RS (short form), FIG. 1B
Experimental: as §2
The adherent cells were removed from the plates with PBS and 2 mM EDTA, pelleted by centrifugation at 1,500×g for 10 minutes at 4° C., and resuspended in ice cold homogenization buffer (1 mM sodium bicarbonate, 1 mM EDTA, 1 mM EGTA, pH 7.2) containing 1×protease inhibitors (5 μg/ml leupeptin, 5 μug/ml aprotinin, 100 μg/ml bacitracin, and 100 μg/ml benzamidine). After 10 minutes on ice, the cells were lysed by dounce homogenizing for 20 strokes in a glass/glass homogenizer. The cell lysate was centrifuged at 1,500×g for 10 minutes at 4° C. to remove the nuclei and cell debris and the supernatant containing the cell membranes were harvested by centrifugation at 20,000×g for 30 minutes at 4° C. The membrane pellet was resuspended in 1×homogenization buffer containing 1×protease inhibitors and once again pelleted. The membrane pellet was then resuspended at 1-5 mg/ml in 25 mM Tris, pH 7.4 and either directly used in binding assays or frozen (−80° C.) in small aliquots for future use.
Radioligand binding assays: competition binding. All radioligand binding assays were performed in 96-well microtiter plates using 1×binding buffer (50 mM HEPES, pH 7.4, 10 mM MgCl2, 0.2% BSA, pH 7.4) containing protease inhibitors (5 μg/ml leupeptin, 5 μmg/ml aprotinin, 100 μg/ml bacitracin, and 100 μg/ml benzamidine). […] Binding reactions were initiated by adding 5-100 μg of membrane protein in a 170 μl volume. Final reaction volume was 200 μl/well.
The microtiter plate was placed on a rotary shaker at 200 rpm and incubated at room temperature for 2 hours. Free radioligand was separated from bound ligand by rapid filtration through a glass fiber (GF/C) filter plate pretreated with 0.3% polyethyleneimine for 30 minutes) using a Packard cell harvester. […] After the filter plates were dried in a 37° C. incubator for 2 hours, 25 μl Microscint scintillation fluid (Packard) was added to each well and the plate was counted in a Packard Top Count scintillation counter.

[8] = Acute metabolic responses to AcNT(8-13): lipolysis, oxygen consumption; format: in vivo; conditions: administered acutely
Text: as §1

Chain of H1-histamine receptors (P35367 whole entry): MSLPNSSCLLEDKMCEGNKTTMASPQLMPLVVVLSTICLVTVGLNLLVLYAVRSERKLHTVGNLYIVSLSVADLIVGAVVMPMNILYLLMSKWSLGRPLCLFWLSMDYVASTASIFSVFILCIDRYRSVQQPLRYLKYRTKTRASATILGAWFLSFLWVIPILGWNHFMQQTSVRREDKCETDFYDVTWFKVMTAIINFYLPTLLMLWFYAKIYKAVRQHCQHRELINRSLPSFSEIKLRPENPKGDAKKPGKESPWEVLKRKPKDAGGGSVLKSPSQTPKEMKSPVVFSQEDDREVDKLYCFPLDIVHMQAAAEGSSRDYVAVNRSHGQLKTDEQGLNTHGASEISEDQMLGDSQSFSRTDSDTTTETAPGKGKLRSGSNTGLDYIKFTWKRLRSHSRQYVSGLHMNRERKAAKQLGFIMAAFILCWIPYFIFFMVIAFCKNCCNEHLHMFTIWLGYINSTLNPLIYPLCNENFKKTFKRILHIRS
T2 sequence (O95665 whole entry): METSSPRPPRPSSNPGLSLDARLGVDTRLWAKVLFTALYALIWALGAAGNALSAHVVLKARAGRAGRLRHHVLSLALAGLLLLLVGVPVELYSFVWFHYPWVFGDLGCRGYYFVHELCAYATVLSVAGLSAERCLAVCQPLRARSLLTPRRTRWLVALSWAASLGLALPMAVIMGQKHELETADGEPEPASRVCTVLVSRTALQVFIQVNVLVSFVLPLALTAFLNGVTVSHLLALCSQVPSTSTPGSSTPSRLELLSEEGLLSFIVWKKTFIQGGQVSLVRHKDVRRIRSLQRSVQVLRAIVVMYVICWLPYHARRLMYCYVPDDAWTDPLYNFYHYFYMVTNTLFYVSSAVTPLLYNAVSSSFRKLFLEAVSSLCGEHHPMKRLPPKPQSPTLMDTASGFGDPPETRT
T1 sequence (O95665 whole entry): as above

Nc1nc2c(ncn2[C@@H]2O[C@H](COP(=O)(O)OP(=O)(O)OP(O)(O)=S)[C@@H](O)[C@H]2O)c(=O)[nH]1 [GTPγS]
% Decrease in [3H]NT Bound in Presence of 100 μM GTPγS [1]: 51.5% | % Decrease in [3H]NT Bound in Presence of 100 μM GTPγS [2]: 35.3%

c1ccncc1 [Pyridine, pyridine]
block of AcNT(8-13)-mediated appetite suppression ([3]; antihistamine at 1 mg/kg): did not block | binding to NTR subtypes [4]: not to any NTR subtypes | binding to H1-histamine receptors [5]: high affinity binding

COc1cccc(OC)c1-c1cc(C(=O)NC2(C(=O)O)C3CC4CC(C3)CC2C4)nn1-c1ccnc2cc(Cl)ccc12 (centres unmarked) [SR48692]
competition of [3H]neurotensin binding [6]: competed at a concentration about two orders of magnitude higher | competition of [3H]neurotensin binding [7]: competed at a concentration about two orders of magnitude higher

COc1cccc(OC)c1-c1cc(C(=O)NC2(C(=O)O)C3CC4CC(C3)CC2C4)nn1-c1ccc(C(=O)N(C)CCCN(C)C)cc1C(C)C.Cl (centres unmarked) [SR142948]
affinity for the NT1R and NT2R subtypes [4]: comparable affinity

C[C@@H]1CN([C@H]2CC[C@](C#N)(c3ccc(F)cc3)CC2)CC[C@]1(C(=O)O)c1ccccc1 [levocabastine, (−)-{3S-[1(cis)-3α4β]}-1-{4-cyano-4-(4-fluoro-phenyl)-cyclohexyl)}-3-methyl-4-phenyl-4-piperidene-carboxylic acid monohydrochloride]
reversal of the suppression of food intake mediated by AcNT(8-13) ([3]; animals pretreated with antagonist, 50 μg/kg AcNT(8-13)): completely reversed | binding to the NT2R subtype [4]: high affinity | selectivity for the NT2R over the NT1R and NT3R subtypes [4]: 1000 fold

AcNT(8-13): N-acetylated form of the carboxyl terminal 6 amino acids of neurotensin (8-13)
food consumption ([3]; AcNT(8-13) i.p., fasted ob/ob males): biphasic suppression of food consumption | suppression of food consumption ([3]; administered acutely): 40-60% | lipolytic effects (NEFAs and glycerol) [8]: elevated NEFAs and glycerol | oxygen consumption [8]: increased | competition of [3H]neurotensin binding [7]: equally well | binding affinity compared with the 13 amino acid form of neurotensin [4]: identical

NT(9-13): neurotensin (9-13) fragment, a neurotensin receptor binding partner
competition of [3H]neurotensin binding [7]: bound with lower affinity

[^3H]NT: tritiated neurotensin radioligand (New England Nuclear, 100 Ci/mmol)
Specific [3H]NT Bound in Presence of 100 μM GTPγS [2]: 451 cpm | Specific [3H]NT Bound ([2]; no GTPγS): 697 cpm
